# From patent US6506772B1, “Substituted [1,2,4]triazolo[1,5a]pyridine derivatives with activity as adenosine receptor ligands” (Hoffmann-La Roche Inc., priority 2000, dated 2003)
# pKi: −log10 of the molar value. Like-named read-outs stand apart in the source and are kept apart here.
# Tests used:
# [1] = target: T1, human adenosine A2A receptor (Homo sapiens, UniProt P29274); experiment: Human adenosine A2A receptor [3H]-SCH-58261 binding assay
# T1 construct: expressed in transfected cells; host or cells: CHO cells, Semliki Forest virus expression system; membrane preparation
# T1 sequence (P29274 whole entry): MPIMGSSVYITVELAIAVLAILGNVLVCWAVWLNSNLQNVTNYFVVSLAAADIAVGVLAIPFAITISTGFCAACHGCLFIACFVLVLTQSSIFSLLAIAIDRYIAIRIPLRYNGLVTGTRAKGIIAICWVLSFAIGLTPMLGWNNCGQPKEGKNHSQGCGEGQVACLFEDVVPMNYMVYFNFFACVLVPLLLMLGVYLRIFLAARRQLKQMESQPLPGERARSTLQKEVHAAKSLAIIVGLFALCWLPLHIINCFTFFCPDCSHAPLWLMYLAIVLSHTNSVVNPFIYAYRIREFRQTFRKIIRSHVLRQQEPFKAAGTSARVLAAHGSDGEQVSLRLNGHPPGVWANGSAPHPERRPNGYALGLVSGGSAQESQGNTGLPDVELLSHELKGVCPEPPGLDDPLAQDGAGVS
# HA1 adenosine receptor = target: T2, HA1 adenosine receptor (Homo sapiens, UniProt P30542); experiment: Human adenosine A1 receptor affinity (Ki hA1); format: binding
# T2 sequence (P30542 1-326): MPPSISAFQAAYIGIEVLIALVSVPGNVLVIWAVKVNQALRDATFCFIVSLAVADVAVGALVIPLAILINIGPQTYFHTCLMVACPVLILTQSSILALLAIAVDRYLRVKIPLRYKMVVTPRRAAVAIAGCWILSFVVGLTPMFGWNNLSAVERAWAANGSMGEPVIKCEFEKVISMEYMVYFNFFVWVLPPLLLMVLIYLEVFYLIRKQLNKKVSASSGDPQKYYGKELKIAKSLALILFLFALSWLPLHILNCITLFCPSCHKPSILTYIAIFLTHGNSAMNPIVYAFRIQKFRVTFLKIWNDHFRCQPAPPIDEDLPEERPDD
# [2] = recombinant human A2A in CHO cell membranes, [3H]-SCH-58261, Cheng-Prussoff, read-out: Ki hA2A
# [3] = affinity to human adenosine A2A receptor, read-out: Ki HA2A
# [4] = calculated ratio of the affinity to the HA1 receptor to the HA2a receptor
# [5] = affinity to human adenosine A1 receptor
selectivity (A1/A2a) ([1]; ratio KiHA1 divided by KiHA2A),"pKi [1, 2]",pKi (HA1 adenosine receptor),"pKi [1, 3]","selectivity (A1/A2a) [1, 4]",pKi (HA1 adenosine receptor; [5]),Structure (SMILES)
13.9,7.09,5.95,–,–,–,"CCN(C(=O)c1cc(N)n2nc(-c3nccs3)nc2c1)C1CCCCC1 [Example 383, 5-Amino-2-thiazol-2-yl-[1,2,4]triazolo[1,5-a]pyridine-7-carboxylic acid cyclohexyl-ethyl-amide]"
–,–,–,7.00,15.2,5.82,"CN(C(=O)c1cc(N)n2nc(-c3nccs3)nc2c1)C1CCCCC1 [Example 124, 5-Amino-2-thiazol-2-yl-[1,2,4]triazolo[1,5-a]pyridine-7-carboxylic acid cyclohexyl-methyl-amide]"
–,–,–,7.31,6.1,6.52,"Cc1ccc(-c2nc3cc(C(=O)NCc4ccccc4)cc(N)n3n2)o1 [Example 210, 5-Amino-2-(5-methyl-furan-2-yl)-[1,2,4]triazolo[1,5-a]pyridine-7-carboxylic acid benzylamide]"
–,–,–,7.66,10.4,6.64,"Nc1cc(C(=O)N2CC=C(c3ccccc3)CC2)cc2nc(-c3ccc(Br)o3)nn12 [Example 312, [5-Amino-2-(5-bromo-furan-2-yl)-[1,2,4]triazolo[1,5-a]pyridin-7-yl]-(4-phenyl-3,6-dihydro-2H-pyridin-1-yl)-methanone]"
–,–,–,7.22,1.1,7.18,"Cc1ccc(-c2nc3cc(C(=O)NC4CCc5ccccc54)cc(N)n3n2)s1 (stereo not drawn) [Example 203, 5-Amino-2-(5-methyl-thiophen-2-yl)-[1,2,4]triazolo[1,5-a]pyridine-7-carboxylic acid indan-1-ylamide]"
–,–,–,7.80,15.3,6.61,"CCN(Cc1ccccc1)C(=O)c1cc(N)n2nc(-c3ccccn3)nc2c1 [Example 29, 5-Amino-2-pyridin-2-yl-[1,2,4]triazolo[1,5-a]pyridine-7-carboxylic acid benzyl-ethyl-amide]"
–,–,–,6.82,9.2,5.85,"Nc1cc(C(=O)NCc2ccccc2Br)cc2nc(-c3cccnc3)nn12 [Example 79, 5-Amino-2-pyridin-3-yl-[1,2,4]triazolo[1,5-a]pyridine-7-carboxylic acid 2-bromo-benzylamide]"
–,–,–,7.26,42.0,5.63,"Nc1cc(C(=O)N2CCSC2)cc2nc(-c3nccs3)nn12 [Example 289, (5-Amino-2-thiazol-2-yl-[1,2,4]triazolo[1,5-a]pyridin-7-yl)-thiazolidin-3-yl-methanone]"
–,–,–,6.72,3.8,6.13,"Nc1cc(C(=O)NCc2ccc(F)cc2)cc2nc(-c3ccoc3)nn12 [Example 227, 5-Amino-2-furan-3-yl-[1,2,4]triazolo[1,5-a]pyridine-7-carboxylic acid 4-fluoro-benzylamide]"
–,–,–,6.76,0.6,6.95,"Cc1ccc(-c2nc3cc(C(=O)NC(C)c4ccccc4)cc(N)n3n2)s1 (stereo not drawn) [Example 198, 5-Amino-2-(5-methyl-thiophen-2-yl)-[1,2,4]triazolo[1,5-a]pyridine-7-carboxylic acid (1-phenyl-ethyl)-amide]"
–,–,–,6.52,19.4,5.23,"Nc1cc(C(=O)N2CCCCC2)cc2nc(-c3ccoc3)nn12 [Example 155, (5-Amino-2-furan-3-yl-[1,2,4]triazolo[1,5-a]pyridin-7-yl)-piperidin-1-yl-methanone]"
–,–,–,6.54,9.3,5.57,"Cn1cccc1-c1nc2cc(C(=O)N3CCCC3)cc(N)n2n1 [Example 134, [5-Amino-2-(1-methyl-1H-pyrrol-2-yl)-[1,2,4]triazolo[1,5-a]pyridin-7-yl]-pyrrolidin-1-yl-methanone]"
–,–,–,7.92,18.5,6.65,"CC(C)N(Cc1ccccc1)C(=O)c1cc(N)n2nc(-c3ccco3)nc2c1 [Example 136, 5-Amino-2-furan-2-yl-[1,2,4]triazolo[1,5-a]pyridine-7-carboxylic acid benzyl-isopropyl-amide]"
–,–,–,7.19,6.9,6.35,"CCCCNC(=O)c1cc(N)n2nc(-c3cccn3C)nc2c1 [Example 178, 5-Amino-2-(1-methyl-1H-pyrrol-2-yl)-[1,2,4]triazolo[1,5-a]pyridine-7-carboxylic acid butylamide]"
–,–,–,8.77,14.6,7.60,"CC(C)N(Cc1ccccc1)C(=O)c1cc(N)n2nc(-c3ccc(Cl)o3)nc2c1 [Example 239, 5-Amino-2-(5-chloro-furan-2-yl)-[1,2,4]triazolo[1,5-a]pyridine-7-carboxylic acid benzyl-isopropyl-amide]"
35.5,7.35,5.80,–,–,–,"CC1CCCN(C(=O)c2cc(N)n3nc(-c4ccccn4)nc3c2)C1 (stereo not drawn) [Example 419, (5-Amino-2-pyridin-2-yl-[1,2,4]triazolo[1,5-a]pyridin-7-yl)-(3-methyl-piperidin-1-yl)-methanone]"
–,–,–,7.01,20.4,5.70,"Nc1cc(C(=O)N2CC=CCC2)cc2nc(-c3nccs3)nn12 [Example 315, (5-Amino-2-thiazol-2-yl-[1,2,4]triazolo[1,5-a]pyridin-7-yl)-(3,6-dihydro-2H-pyridin-1-yl)-methanone]"
–,–,–,7.20,12.9,6.09,"Cc1ccsc1-c1nc2cc(C(=O)N(Cc3ccccc3)C(C)C)cc(N)n2n1 [Example 144, 5-Amino-2-(3-methyl-thiophen-2-yl)-[1,2,4]triazolo[1,5-a]pyridine-7-carboxylic acid benzyl-isopropyl-amide]"
–,–,–,7.81,28.3,6.36,"CCCN(C)C(=O)c1cc(N)n2nc(-c3ccc(Cl)o3)nc2c1 [Example 252, 5-Amino-2-(5-chloro-furan-2-yl)-[1,2,4]triazolo[1,5-a]pyridine-7-carboxylic acid methyl-propyl-amide]"
–,–,–,8.14,14.7,6.97,"Cc1ccc(-c2nc3cc(C(=O)N(C)Cc4ccccc4)cc(N)n3n2)o1 [Example 140, 5-Amino-2-(5-methyl-furan-2-yl)-[1,2,4]triazolo[1,5-a]pyridine-7-carboxylic acid benzyl-methyl-amide]"
–,–,–,6.98,2.7,6.55,"Nc1cc(C(=O)NCc2ccccc2Cl)cc2nc(-c3ccccc3O)nn12 [Example 159, 5-Amino-2-(2-hydroxy-phenyl)-[1,2,4]triazolo[1,5-a]pyridine-7-carboxylic acid 2-chloro-benzylamide]"
21.4,7.76,6.43,–,–,–,"Nc1cc(C(=O)N2CCCCCCC2)cc2nc(-c3ccccn3)nn12 [Example 422, (5-Amino-2-pyridin-2-yl-[1,2,4]triazolo[1,5-a]pyridin-7-yl)-azocan-1-yl-methanone]"
39.1,8.01,6.42,–,–,–,"NC(=O)[C@@H]1CCCN1C(=O)c1cc(N)n2nc(-c3ccc(Br)o3)nc2c1 [Example 389, 1-[5-Amino-2-(5-bromo-furan-2-yl)-[1,2,4]triazolo[1,5-a]pyridine-7-carbonyl]-D-pyrrolidine-2-carboxylic acid amide]"
